From patent US7314709B2, “Compositions and methods for detecting and quantifying COX-2 activity by lipoamino acid metabolism” (Vanderbilt University, priority 2002, dated 2008)
Positions count from the first letter of the chain named.

Tests used:
Assay type in all cases: biochemical, murine
[1] = biological target: T1, mCOX-2 E524L (Mus musculus, UniProt Q05769, E510L); assay: Initial O2 uptake rate with constriction site mutant E524L; conditions: 200 nM enzyme; AA 100 μM, NAGly 200 μM
T1 construct: made in house; host or cells: Sf-9 insect cells
T1 sequence (Q05769 18-604 E510L): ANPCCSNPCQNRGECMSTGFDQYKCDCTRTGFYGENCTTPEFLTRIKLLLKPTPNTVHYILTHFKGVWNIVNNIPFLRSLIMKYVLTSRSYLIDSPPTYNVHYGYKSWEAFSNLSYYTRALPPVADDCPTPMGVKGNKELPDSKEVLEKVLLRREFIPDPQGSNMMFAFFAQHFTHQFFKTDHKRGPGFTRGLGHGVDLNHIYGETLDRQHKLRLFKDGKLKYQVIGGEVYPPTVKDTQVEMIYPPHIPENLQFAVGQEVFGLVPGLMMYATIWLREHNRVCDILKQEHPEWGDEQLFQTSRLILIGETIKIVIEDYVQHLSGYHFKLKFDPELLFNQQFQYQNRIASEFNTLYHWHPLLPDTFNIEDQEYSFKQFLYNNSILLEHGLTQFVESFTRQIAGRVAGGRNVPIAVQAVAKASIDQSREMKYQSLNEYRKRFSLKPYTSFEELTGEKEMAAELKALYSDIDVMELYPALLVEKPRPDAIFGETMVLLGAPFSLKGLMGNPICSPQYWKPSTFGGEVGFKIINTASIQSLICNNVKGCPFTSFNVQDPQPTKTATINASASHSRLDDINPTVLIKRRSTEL
Procedure: (§1) Enzymology: COX-1 was purified from ram seminal vesicles as previously described. Site-directed mutagenesis of COX-2 was performed as described previously. Recombinant COX-2 enzymes were expressed in Sf-9 insect cells and purified by ion-exchange chromatography and gel filtration as previously described. Apo-enzymes were reconstituted with hematin prior to activity assays.
(§2) COX activity was quantified as previously described. Initial reaction velocity data were obtained from the linear portion of the oxygen uptake curves. Oxygraph data were analyzed by nonlinear regression with Enzyme Kinetics 1.5 software (Trinity Software, Campton, N.H.).
(§3) At the bottom of the substrate (and inhibitor) binding site, there is a hydrogen bonding network comprised of residues Arg-120, Tyr-355, and Glu524, that form a constriction which is present in both COX isoforms. These residues contribute to the binding of the carboxylate in both AA and NSAIDs, and the glycerol moiety of 2-AG [12,23-27].

[2] = biological target: T2, mCOX-2 Y355F (Mus musculus, UniProt Q05769, Y341F); assay: Initial O2 uptake rate with constriction site mutant Y355F; conditions: 200 nM enzyme; AA 100 μM
T2 construct: made in house; host or cells: Sf-9 insect cells
T2 sequence (Q05769 18-604 Y341F): T1 sequence (Q05769 18-604 E510L) with Y324F, L493E
Procedure: as §1, §2, §3

[3] = biological target: T3, mCOX-2 V4341/R513H/V5231 (VRV) (Mus musculus, UniProt Q05769, R499H/V420I/V509I); assay: Initial O2 uptake rate with side pocket triple mutant (VRV); conditions: 200 nM enzyme; AA 100 μM, NAGly 200 μM
T3 construct: made in house; host or cells: Sf-9 insect cells
T3 sequence (Q05769 18-604 V420I/R499H/V509I): T1 sequence (Q05769 18-604 E510L) with V403I, R482H, V492I, L493E
Procedure: as §1, §2
(§4) Previous studies have identified residues in the side pocket of COX-2, especially Arg-513, as critical determinants of 2-AG oxygenation by COX-2 [13]. […] (FIG. 5).

[4] = biological target: T4, mCOX-2 R513H (Mus musculus, UniProt Q05769, R499H); assay: Initial O2 uptake rate with side pocket mutant R513H; conditions: 200 nM enzyme; AA 100 μM, NAGly 200 μM
T4 construct: made in house; host or cells: Sf-9 insect cells
T4 sequence (Q05769 18-604 R499H): T1 sequence (Q05769 18-604 E510L) with R482H, L493E
Procedure: as §1, §2, §4

reduction in initial rate of oxygenation compared with wild-type [1]: < 3 fold
reduction in initial rate of oxygenation compared with wild-type [2]: < 3 fold
effect of mutation on oxygenation [3]: did not greatly affect
effect of mutation on oxygenation rate [4]: did not greatly affect
Structure (SMILES): CCCCC/C=C\C/C=C\C/C=C\C/C=C\CCCC(=O)O [AA, arachidonic acid]
